Each block holds one sequence with its values, some of them ahead of it.
Target: T1, MyD88^TIR (Homo sapiens, UniProt Q99836)
T1 construct: MyD88 (residues 148–296); 6xHis; made in house; host or cells: E. coli BL21 (DE3)
Test: T‐Surf phage library (P8 and P3) selection against MyD88^TIR, four rounds, NGS read counts
Type: binding
Settings: for P3_MyD88 Rank (after) / P3_MyD88 Rank (before): P3 library; for P8_MyD88 Rank (after) / P8_MyD88 Rank (before): P8 library; for Population: 4th round of selection against MyD88 TIR, share of NGS reads
Summary of the method: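 Read counts come from NGS of phage pools enriched over four selection rounds on the plate‐coated TIR domain (5 µg mL^−1). Each round: 1 h phage binding at room temperature after 0.2% BSA blocking, Tween washes, acid elution, amplification in E. coli TG1 with M13KO7 helper.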

[1] = P8_MyD88: rank by count after grouping
[2] = P8_MyD88: rank by count before grouping
[3] = 4R selection against MyD88, rank after grouping
[4] = 4R selection against MyD88, rank before grouping
[5] = selection against MyD88 TIR, rank by count after grouping
[6] = selection against MyD88 TIR, rank by count before grouping
[7] = P8_MyD88: rank by NGS read count after grouping
[8] = P8_MyD88: rank by NGS read count before grouping
[9] = selection against MyD88, rank by count after grouping
[10] = selection against MyD88, rank by count before grouping
[11] = P3_MyD88 pool: P3 T-Surf phage library
[12] = selection against MyD88, rank after grouping
[13] = selection against MyD88, rank before grouping
[14] = P8_MyD88 pool: P8 T-Surf phage library
[15] = P3_MyD88: rank by count after grouping
[16] = P3_MyD88: rank by count before grouping

T1 sequence (Q99836 148-296): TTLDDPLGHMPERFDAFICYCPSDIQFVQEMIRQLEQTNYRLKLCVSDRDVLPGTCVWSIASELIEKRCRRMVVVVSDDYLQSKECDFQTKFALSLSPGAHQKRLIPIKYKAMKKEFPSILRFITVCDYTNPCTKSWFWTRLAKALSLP

Rank (after) [1]: 394
Rank (before) [2]: 2672
Sequence: DPQGRDWFYERLVSLF

P3_MyD88 Rank (after) [3]: 660
P3_MyD88 Rank (before) [4]: 3149
Sequence: SSFREGVWRLPEMSTK

P8_MyD88 Rank (after) [5]: 214
P8_MyD88 Rank (before) [6]: 303
Sequence: AYSPWALDELVKIIEA

P3_MyD88 Rank (after) [5]: 227
P3_MyD88 Rank (before) [6]: 1676
Sequence: YTALTNSGFHTFRDHE

Rank (after) [1]: 445
Rank (before) [2]: 1549
Sequence: WALNELQQILHARELF

P8_MyD88 Rank (after) [5]: 254
P8_MyD88 Rank (before) [6]: 448
Sequence: AWIWGWREALVYIGGI

Rank (after) [7]: 896
Rank (before) [8]: 2347
Sequence: DFLSHLIKRLAVCTS

Rank (after) [7]: 1009
Rank (before) [8]: 3148
Sequence: EPQDLDWLYERLVSLF

P3_MyD88 Rank (after) [9]: 723
P3_MyD88 Rank (before) [10]: 2958
Sequence: SENYASSSWALTELVH

P3_MyD88 Rank (after) [5]: 210
P3_MyD88 Rank (before) [6]: 3038
Sequence: SELRVVDDGSVSPLK

Rank (after) [7]: 986
Rank (before) [8]: 2713
Sequence: DPQDLVWFYERLVSIV

Population [11]: 0.00291%
Sequence: SSLREGLWRLLELSKK

P8_MyD88 Rank (after) [12]: 546
P8_MyD88 Rank (before) [13]: 2018
Sequence: YLLLNVFQIIFARGPE

Rank (after) [7]: 968
Rank (before) [8]: 3399
Sequence: RGFHWTEWENFVDIED

P3_MyD88 Rank (after) [12]: 513
P3_MyD88 Rank (before) [13]: 2316
Sequence: LVAHRMSKKMKNVATI

P3_MyD88 Rank (after) [5]: 208
P3_MyD88 Rank (before) [6]: 1649
Sequence: YTALTNCGFHTFRDNV

P3_MyD88 Rank (after) [12]: 516
P3_MyD88 Rank (before) [13]: 3268
Sequence: SSVRECLWRLLELSKK

P8_MyD88 Rank (after) [5]: 270
P8_MyD88 Rank (before) [6]: 2751
Sequence: DPQDLDWFYARLVRLF

Population [11]: 0.0032%
Sequence: SSFREGLWRLLELTKK

P8_MyD88 Rank (after) [3]: 632
P8_MyD88 Rank (before) [4]: 1453
Sequence: WALDELLQILHARELLQIA

Rank (after) [1]: 165
Rank (before) [2]: 187
Population [14]: 0.00694%
Sequence: HFETTEGNFYKFFLFF

P3_MyD88 Rank (after) [12]: 503
P3_MyD88 Rank (before) [13]: 2131
Sequence: EWIREQFRRALKERLP

P3_MyD88 Rank (after) [3]: 674
P3_MyD88 Rank (before) [4]: 2608
Sequence: RISAFHKQLVMAVKAQ

P8_MyD88 Rank (after) [9]: 722
P8_MyD88 Rank (before) [10]: 2169
Sequence: VANILGYHCIDWEHFVGIED

Rank (after) [15]: 103
Rank (before) [16]: 542
Sequence: KNLFNELVSKNIRTL

Rank (after) [7]: 923
Rank (before) [8]: 2629
Sequence: DPHGLEWIYERLVSLF

P8_MyD88 Rank (after) [9]: 733
P8_MyD88 Rank (before) [10]: 2791
Sequence: DPQDLDWFYERRVCLF

P3_MyD88 Rank (after) [5]: 215
P3_MyD88 Rank (before) [6]: 1210
Sequence: SSFREQLRPALKERLP

Population [14]: 0.00771%
Sequence: YLLLSVFQTIFARRTD

P8_MyD88 Rank (after) [3]: 663
P8_MyD88 Rank (before) [4]: 1535
Sequence: WALNELLEILYANETM

Population [14]: 0.00886%
Sequence: DLVWDYLLPNLEGPAG

P3_MyD88 Rank (after) [9]: 703
P3_MyD88 Rank (before) [10]: 3528
Sequence: NQWRKALTSAANLSGW

P3_MyD88 Rank (after) [9]: 716
P3_MyD88 Rank (before) [10]: 3402
Sequence: NELVRVWSSKANSRVG

P3_MyD88 Rank (after) [5]: 223
P3_MyD88 Rank (before) [6]: 1655
Sequence: YTALTNIGIHTFRDND

P3_MyD88 Rank (after) [3]: 583
P3_MyD88 Rank (before) [4]: 1418
Sequence: WFWDKQKYTLPHRYEP

Rank (after) [15]: 134
Rank (before) [16]: 834
Sequence: YAFTGHLHRYLVQRL

Rank (after) [1]: 442
Rank (before) [2]: 1195
Sequence: PGYHWLEWEYFVGIED

P3_MyD88 Rank (after) [3]: 584
P3_MyD88 Rank (before) [4]: 3198
Sequence: SSFREGLWHLLQLSLK

Rank (after) [15]: 420
Rank (before) [16]: 3407
Sequence: NELVHVWCCKANSQAG

P8_MyD88 Rank (after) [3]: 642
P8_MyD88 Rank (before) [4]: 3172
Sequence: EYRNESKSVWDIINAI

Rank (after) [15]: 413
Rank (before) [16]: 2302
Sequence: LVAHEISKKMKIFRP

P3_MyD88 Rank (after) [3]: 669
P3_MyD88 Rank (before) [4]: 1819
Sequence: GFREGLWRLLELSKK

Rank (after) [15]: 176
Rank (before) [16]: 2525
Sequence: LKVENWRQAMEKAGKL

P3_MyD88 Rank (after) [9]: 689
P3_MyD88 Rank (before) [10]: 1657
Sequence: YTALTNSGCHTFRVND

P8_MyD88 Rank (after) [9]: 727
P8_MyD88 Rank (before) [10]: 1465
Sequence: WALDELLQILRARDLF

P3_MyD88 Rank (after) [12]: 524
P3_MyD88 Rank (before) [13]: 3079
Sequence: SLRKNVVSNLLEEFKR

Rank (after) [1]: 473
Rank (before) [2]: 3638
Sequence: IDDDHLTYLVRLIEAL

P3_MyD88 Rank (after) [5]: 256
P3_MyD88 Rank (before) [6]: 3525
Sequence: NQWRNAQTAAANLNGW

P3_MyD88 Rank (after) [12]: 489
P3_MyD88 Rank (before) [13]: 2475
Sequence: LKVESWRDALTAAANLSGW

Rank (after) [1]: 480
Rank (before) [2]: 1518
Sequence: WALDLQWFYERLVSLI

Source: publication PMC11714206, “Massively Parallel Screening of Toll/Interleukin‐1 Receptor (TIR)‐Derived Peptides Reveals Multiple Toll‐Like Receptors (TLRs)‐Targeting Immunomodulatory Peptides” (Advanced Science, 2024)
